Data as given in ChEMBL document CHEMBL1201862, “PubChem BioAssay data set” (2004).
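Assay format: 96-well plates, 48-hour exposure. GI50 marks 50% less growth.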 The source made the active and inactive calls. Rule as the data show it: active = GI50 up to about 1.1 µM and inactive = higher.

Assays:
Test in all cases: NCI tumour cell line growth inhibition, 48 h
[1] = system: SW-620
[2] = system: NCI-H522
[3] = system: SF-268
[4] = system: SNB-75
[5] = system: SNB-19
[6] = system: SK-MEL-2
[7] = system: HL-60
[8] = system: 786-0
[9] = system: MOLT-4
[10] = system: EKVX
[11] = system: Malme-3M
[12] = system: LOX IMVI
[13] = system: A549
[14] = system: KM12
[15] = system: HOP-62
[16] = system: NCI-H23
[17] = system: UACC-62
[18] = system: HCT-15
[19] = system: UO-31
[20] = system: IGROV-1

Measured: GI50

CNC(=O)CCCNC(=O)CCCC(=O)N(C)C
> 100 µM: [18]
inactive: [1] 45.5 µM | [2] > 100 µM | [3] > 100 µM | [4] > 100 µM | [5] > 100 µM | [6] > 100 µM | [7] > 100 µM | [8] > 100 µM | [9] > 100 µM | [10] > 100 µM | [11] > 100 µM | [12] > 100 µM | [13] > 100 µM | [14] > 100 µM | [15] > 100 µM | [16] > 100 µM | [17] > 100 µM | [19] > 100 µM | [20] > 100 µM

Cc1cc(Cl)ccc1NC(=O)C(=O)Cc1nc2ccccc2o1
inactive: [1] > 100 µM | [2] > 100 µM | [3] > 100 µM | [4] > 100 µM | [5] > 100 µM | [6] > 100 µM | [7] > 100 µM | [8] > 100 µM | [9] > 100 µM | [10] > 100 µM | [11] > 100 µM | [12] > 100 µM | [13] > 100 µM | [14] > 100 µM | [15] > 100 µM | [16] > 100 µM | [17] > 100 µM | [19] > 100 µM | [20] > 100 µM
> 100 µM: [18]

CC(=O)OCCOCn1cc(C=O)c2ccccc21
> 100 µM: [18]
inactive: [1] > 100 µM | [2] 49.3 µM | [3] > 100 µM | [4] > 100 µM | [5] > 100 µM | [6] > 100 µM | [7] > 100 µM | [8] > 100 µM | [9] > 100 µM | [10] > 100 µM | [11] > 100 µM | [12] > 100 µM | [13] > 100 µM | [14] > 100 µM | [15] > 100 µM | [16] > 100 µM | [17] > 100 µM | [19] > 100 µM | [20] > 100 µM

COc1cccc(NC(=O)CC(=O)NN)c1
inactive: [1] > 100 µM | [2] > 100 µM | [3] > 100 µM | [4] > 100 µM | [5] > 100 µM | [6] > 100 µM | [7] > 100 µM | [8] > 100 µM | [9] > 100 µM | [10] > 100 µM | [11] > 100 µM | [12] > 100 µM | [13] > 100 µM | [14] > 100 µM | [15] > 100 µM | [16] > 100 µM | [17] > 100 µM | [19] > 100 µM | [20] > 100 µM
> 100 µM: [18]

Brc1ccc2c(-c3nc(-c4c[nH]c5ccc(Br)cc45)cs3)c[nH]c2c1
3.39 µM: [18]
inactive: [1] 4.61 µM | [2] 1.95 µM | [3] 4.82 µM | [4] 14.5 µM | [5] 4.25 µM | [6] 6.25 µM | [7] 6.43 µM | [8] 2.24 µM | [9] 2.46 µM | [10] 1.24 µM | [11] 4.24 µM | [12] 2.32 µM | [13] 4.14 µM | [14] 2.62 µM | [15] 11.7 µM | [16] 3.24 µM | [17] 2.87 µM | [19] 4.1 µM | [20] 2.99 µM

CC(=O)OC/C=C(\C)CCC(Br)C(C)(C)Br (stereo not given)
> 10 µM: [18]
active: [19] 0.001 µM
inactive: [1] > 10 µM | [2] > 10 µM | [3] > 10 µM | [4] > 10 µM | [5] > 10 µM | [6] > 10 µM | [7] > 10 µM | [8] > 10 µM | [9] > 10 µM | [10] > 10 µM | [11] > 10 µM | [12] > 10 µM | [13] > 10 µM | [14] > 10 µM | [15] > 10 µM | [16] > 10 µM | [17] > 10 µM | [20] > 10 µM
